Read-outs that look alike come from different tables or passages of the source.
Legend:
eyelashes = conditions: marketed eye drops for ocular hypertension and glaucoma; cited from earlier work
Male C3H/HeN mice [1] = conditions: mouse, in vivo
Excerpt: (§1) Male C3H/HeN mice of 7 weeks old (seven groups; three mice/group) were used. Following 1-week acclimation, hair on the back of mice was shaved. Two days after the shaving, applications of test compound (13,14-dihydro-15-keto-17-phenyl-18,19,20-trinor-PGF2α isopropyl ester), latanoprost(13,14-dihydro-17-phenyl-18,19,20-trinor-PGF2α isopropyl ester), and vehicle (70 w/w % EtOH) were initiated (Day 1). 0.005%, 0.01% or 0.03% of test compound, 0.005%, 0.01% or 0.03% of latanoprost, or vehicle were applied to the shaved area of the mice at a volume of 0.1 mL once daily for 30 days. The hair growth was scored according to the following criteria.
−: No hair growth observed
(§2) ±: Hair growth observed; less than 10% of shaving area
(§3) +: Hair growth observed; 10-30% of shaving area
(§4) ++: Hair growth observed; 30-50% of shaving area
(§5) +++: Hair growth observed; more than 50% of shaving area

Male C3H/HeN mice [2] = assay: Hair growth scoring after once daily topical application to the shaved back of mice for 30 days; conditions: for Scores of hair growth: 0.1 mL once daily on shaved area, individual animals
Excerpt: as §1
−: No hair growth observed
as §2, §3, §4, §5

## CC(C)OC(=O)CCC/C=C\C[C@@H]1[C@@H](CC[C@@H](O)CCc2ccccc2)[C@H](O)C[C@@H]1O [Latanoprost, 13,14-dihydro-17-phenyl-18,19,20-trinor-PGF2α isopropyl ester]
eyelashes
  Eyelash hair growth (side effect of eye drops): induce eyelash hair growth
Male C3H/HeN mice [1]
  Effect on the hair growth (summary in words): remarkable hair growth stimulation
  Scores of hair growth: −

## CCCCCCCC(=O)CC[C@@H]1[C@@H](C/C=C\CCCC(=O)OC(C)C)[C@@H](O)C[C@H]1O [Rescula®, 13,14-dihydro-15-keto-20-ethyl-PGF2α isopropylester]
eyelashes
  Eyelash hair growth (side effect of eye drops): increases length of eyelashes

## CC(C)OC(=O)CCC/C=C\C[C@@H]1[C@@H](CCC(=O)CCc2ccccc2)[C@H](O)C[C@@H]1O [Test compound, 13,14-dihydro-15-keto-17-phenyl-18,19,20-trinor-PGF2α isopropyl ester]
Male C3H/HeN mice [2]; 0.005%, 19 days after first application
  Scores of hair growth: −
Male C3H/HeN mice [2]; 0.005%, 22 days after first application
  Scores of hair growth: −
Male C3H/HeN mice [2]; 0.005%, 23 days after first application
  Scores of hair growth: −
Male C3H/HeN mice [2]; 0.005%, 24 days after first application
  Scores of hair growth: −
Male C3H/HeN mice [2]; 0.005%, 25 days after first application
  Scores of hair growth: −
Male C3H/HeN mice [2]; 0.005%, 26 days after first application
  Scores of hair growth: −
Male C3H/HeN mice [2]; 0.005%, 29 days after first application
  Scores of hair growth: −
Male C3H/HeN mice [2]; 0.005%, 30 days after first application
  Scores of hair growth: −
Male C3H/HeN mice [2]; 0.01%, 19 days after first application
  Scores of hair growth: −
Male C3H/HeN mice [2]; 0.01%, 22 days after first application
  Scores of hair growth: −
Male C3H/HeN mice [2]; 0.01%, 23 days after first application
  Scores of hair growth: −
Male C3H/HeN mice [2]; 0.01%, 24 days after first application
  Scores of hair growth: −
Male C3H/HeN mice [2]; 0.01%, 25 days after first application
  Scores of hair growth: −
Male C3H/HeN mice [2]; 0.01%, 26 days after first application
  Scores of hair growth: −
Male C3H/HeN mice [2]; 0.01%, 29 days after first application
  Scores of hair growth: −
Male C3H/HeN mice [2]; 0.01%, 30 days after first application
  Scores of hair growth: −
Male C3H/HeN mice [2]; 0.03%, 19 days after first application
  Scores of hair growth: −
Male C3H/HeN mice [2]; 0.03%, 22 days after first application
  Scores of hair growth: −
Male C3H/HeN mice [2]; 0.03%, 23 days after first application
  Scores of hair growth: −
Male C3H/HeN mice [2]; 0.03%, 24 days after first application
  Scores of hair growth: −
Male C3H/HeN mice [2]; 0.03%, 25 days after first application
  Scores of hair growth: −
Male C3H/HeN mice [2]; 0.03%, 26 days after first application
  Scores of hair growth: −
Male C3H/HeN mice [2]; 0.03%, 29 days after first application
  Scores of hair growth: −
Male C3H/HeN mice [2]; 0.03%, 30 days after first application
  Scores of hair growth: −
Male C3H/HeN mice [2]; any concentration tested (0.005%, 0.01%, 0.03%), once daily for 30 days
  Effect on the hair growth (summary in words): no effects on the hair growth

## CCNC(=O)CCC/C=C\C[C@@H]1[C@@H](/C=C/[C@@H](O)CCc2ccccc2)[C@H](O)C[C@@H]1O [bimatoprost, 17-phenyl 18,19,20-trinor PGF2α-N-ethylamide]
eyelashes
  Eyelash hair growth (side effect of eye drops): induce eyelash hair growth

## CC(C)OC(=O)CCC/C=C\C[C@@H]1[C@@H](/C=C/[C@@H](O)COc2cccc(C(F)(F)F)c2)[C@H](O)C[C@@H]1O [travoprost, 16-(3-trifluoromethylphenoxy)-17,18,19,20-tetranor PGF2α isopropyl ester]
eyelashes
  Eyelash hair growth (side effect of eye drops): induce eyelash hair growth
